Data taken from patent US10449213B2, “Combinatorial approach to treating Alzheimer's disease” (Florida State University Research Foundation, Inc., priority 2011, dated 2019).
Where two headings read alike, the source gives them in different places.

Key:
Aβ(1-40) peptide [1] = target: T1, Aβ(1-40) peptide (Homo sapiens, UniProt P05067); assay: Intrinsic tyrosine fluorescence titration of Aβ(1-40) with vitamin B12; details: 50 μM in PBS, 25° C., 1:1 binding stoichiometry, read-out: binding constant, KD
T1 construct: Synthetic Aβ(1-40) peptide was purchased from Biopeptide, Inc; purchased Biopeptide, Inc; host or cells: chemical synthesis
Protocol: Samples of Aβ(1-40) were reconstituted in phosphate buffer saline (PBS) (137 mM NaCl, 2.7 mM KCl, 10 mM Na2HPO4, 2 mM KH2PO4, pH 7.4), except in surface plasmon resonance experiments, as described below. Immediately after reconstitution into PBS, the pH of the solution was adjusted to 10, allowing for solubilization of the peptide. The pH was then readjusted to 7.4, followed by filtration through a 0.22 μm supor membrane filter. Concentrations of Aβ(1-40) were determined using UV-Vis spectroscopy (Cary 300 spectrophotometer, Varian, Inc) and an extinction coefficient of 1,490 M^−1 cm^−1 at 280 nm. Aβ(1-40) samples used in fluorescence experiments to examine peptide/B12 binding included freshly prepared, monomeric Aβ species and “aged” Aβ, incubated for seven days and containing high-molecular weight species.
Preparation of Vitamin B12 Samples. […] Concentrations of B12 were determined using UV-Vis spectroscopy (Cary300 spectrophotometer, Varian, Inc) and an extinction coefficient of 4,900 M^−1 cm^−1 at 525 nm.
Intrinsic Tyrosine Fluorescence Spectroscopy Experiments on Amyloid-Beta Peptide in the Presence of Vitamin B12. Intrinsic tyrosine fluorescence was measured as previously described by Lakowicz in Principles of Fluorescence Spectroscopy. […] The binding constant, KD, was calculated using equation (1) in SigmaPlot 9.0 (Systat Software, Inc.) assuming 1:1 binding stoichiometry. […]

Aβ(1-40) = target: T2, Aβ(1-40) (Homo sapiens, UniProt P05067); assay: Surface plasmon resonance (Biacore T-200), immobilized Aβ(1-40); details: freshly prepared Aβ(1-40) immobilized on CM5 chip, 25° C., fit to 1:1 binding model; read-out: binding constant (SPR)
T2 construct: Synthetic Aβ(1-40) peptide was purchased from Biopeptide, Inc; purchased Biopeptide, Inc; host or cells: chemical synthesis
Protocol: Surface Plasmon Resonance (SPR) Experiments. The binding of Aβ(1-40) and vitamin B12 was analyzed by SPR using a Biacore T-200 optical biosensor (Biacore/GE Healthcare). The Aβ peptide was immobilized on CM5 sensor chips using amine coupling chemistry. Briefly, the carboxymethyl dextran surface of a CM5 sensor chip was activated with a 1:1 mixture of 0.4 M 1-ethyl-3-(3-dimethylaminopropyl)-carbodiimide (EDC) and 0.1 M N-hydroxysuccinimide (NHS) at 25° C. A peptide surface (400-800 RU) was created by pulsing Aβ in 10 mM sodium acetate at pH 4.5 over the flow cell. The remaining binding sites on the dextran surface were blocked with […], pH 8.5. A reference surface was activated and blocked as outlined above.
Binding experiments were carried out using HBS-EP+ running buffer (0.1 M Hepes, 1.5 M NaCl, 30 mM EDTA, 0.05% v/v surfactant P-20, pH 7.4) at 25° C. All components were 0.22 μm-filtered prior to use. […] Data were analyzed using T200 BiaEvaluation 1.0 (Biacore) software and fit to a 1:1 binding model.
In the SPR experiments, freshly prepared Aβ(1-40) was immobilized on a chip. […] Referring to FIG. 7, a concentration dependent change in the refractive index at the surface of the chip was detected. This change, reflective of the Aβ peptide/B12 interaction, was monitored in real time. […]

Aβ(1-40) peptide [2] = target: T1, Aβ(1-40) peptide; assay: Thioflavin T fluorescence, fibril formation by Aβ(1-40); format: biochemical; details: Aβ(1-40) 30 μM, 37° C.
Protocol: Thioflavin T Fluorescence Spectroscopy Experiments on Amyloid-Beta Peptide in the Presence of Vitamin B12. The Fluorescence signal was measured as previously described using a Biotek Flx800 fluorescence microplate reader. Aβ(1-40) peptide samples (30 μM) were incubated at 37° C. in the presence or absence of B12. Following incubation, ThT was added to a final concentration of 10 μM as a probe for fibril formation by Aβ(1-40). All fluoresce readings were corrected for 10 mM sodium phosphate buffer contribution. Thioflavin T (ThT) (Sigma Aldrich) was reconstituted in Nanopure water, aliquoted, and stored at −20° C. Concentration of ThT was determined using UV-Vis spectroscopy (Cary300 spectrophotometer, Varian, Inc) and an extinction coefficient of 36,000 M^−1 cm^−1 at 412 nm.

hippocampal neurons = assay: Aβ-induced neuronal cell death in hippocampal cell culture, Trypan Blue counting; format: cell-based, Wistar rat; details: pre-aggregated Aβ(1-40) 25 μM, B12 50, 25 or 12.5 μM, 72 hours
Protocol: Neuronal Cell Culture Experiments. Neuronal cell culture experiments were conducted using methodologies described previously by Lee, et al in Cell, Vol. 111(2), pages 219-230 (2002); Lei, et al in EMBO J, Vol. 21(12), pages 2977-2989 (2002); Xin, et al in J Neurosci, Vol. 25(1), pages 139-48 (2005); and Xin, et al in European Journal of Neuroscience, Vol. 21(3), pages 622-636 (2005).
Briefly, hippocampal tissue was dissected from Wistar rat embryos (18 days gestation or E18) at 4° C. Dissociated hippocampal neurons were plated at a density of approximately 2.0×10^4 cells/cm^2 onto 35 mm culture dishes coated with poly-D-lysine. Neurons were matured in culture for 21 days in vitro in NEUROBASAL® media (Invitrogen) supplemented with B27 (2%), bFGF2 (2 ng/mL) and L-glutamine (0.5 mM). The Aβ(1-40) was dissolved in DMSO, followed by dilution into culture medium (final DMSO concentration was 1%), and incubation at 37° C. for three days to form Aβ(1-40) oligomeric species. […]
Trypan Blue Staining and Cell Counting. […] Five random fields, one from each corner and one from the center of the dish, were counted for both live and dead cells at 63× magnification to obtain a percentage of cell death. […]
The physiological relevance of the B12/Aβ interaction was evaluated using neuronal cell culture experiments. […]

T1 sequence (P05067 672-711 limits assumed): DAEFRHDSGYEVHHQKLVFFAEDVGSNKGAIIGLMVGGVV
T2 sequence (P05067 672-711 limits assumed): as above

C/C1=C2/[N-][C@H]([C@H](CC(N)=O)[C@@]2(C)CCC(=O)NC[C@@H](C)OP(=O)([O-])O[C@H]2[C@@H](O)[C@@H](n3cnc4cc(C)c(C)cc43)O[C@@H]2CO)[C@]2(C)N=C(/C(C)=C3N=C(/C=C4N=C1[C@@H](CCC(N)=O)C\4(C)C)[C@@H](CCC(N)=O)[C@]\3(C)CC(N)=O)[C@@H](CCC(N)=O)[C@]2(C)CC(N)=O.[Co+3].[OH-] [vitamin B12, hydroxocobalamin]
Kd (Aβ(1-40) peptide [1]; monomeric (freshly prepared) Aβ(1-40)): 87 ± 2.7 µM | Kd (Aβ(1-40) peptide [1]; self-associated (aged, seven days) Aβ(1-40)): 96.1 ± 3.5 µM | Kd (Aβ(1-40)): 132 µM | ThT fluorescence after addition to pre-formed Aβ(1-40) aggregates (fibril dissociation) (Aβ(1-40) peptide [2]; B12 added to fibrils formed in its absence): reduction of the ThT fluorescence | ThT fluorescence signal of Aβ(1-40) incubated in the presence of vitamin B12 (self-association) (Aβ(1-40) peptide [2]; incubated with B12): no increase in the ThT fluorescence signal | neuronal cell death upon addition of amyloid-beta peptide (hippocampal neurons): alleviated
